Source: ChEMBL document CHEMBL1141388, “2-Cyano-pyrimidines: a new chemotype for inhibitors of the cysteine protease cathepsin K” (J Med Chem, 2007)
pIC50: −log10 of the molar value.

Legend:
[1] = molecular target: T1, Cathepsin K (Homo sapiens, UniProt P43235); assay: Inhibition of human recombinant cathepsin K
T1 sequence (P43235 whole entry): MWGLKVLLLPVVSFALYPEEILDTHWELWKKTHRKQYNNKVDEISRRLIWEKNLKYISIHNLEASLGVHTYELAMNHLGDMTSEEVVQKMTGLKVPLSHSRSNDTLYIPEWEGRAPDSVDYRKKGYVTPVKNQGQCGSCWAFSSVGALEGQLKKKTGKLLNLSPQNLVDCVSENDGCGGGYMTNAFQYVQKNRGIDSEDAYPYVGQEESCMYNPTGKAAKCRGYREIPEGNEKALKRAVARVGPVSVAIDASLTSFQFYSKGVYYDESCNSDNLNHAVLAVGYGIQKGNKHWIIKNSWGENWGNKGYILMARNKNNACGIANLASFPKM

[2] = molecular target: Cathepsin S (Homo sapiens, UniProt P25774); assay: Inhibition of human recombinant cathepsin S
Chain of Cathepsin S (P25774 whole entry): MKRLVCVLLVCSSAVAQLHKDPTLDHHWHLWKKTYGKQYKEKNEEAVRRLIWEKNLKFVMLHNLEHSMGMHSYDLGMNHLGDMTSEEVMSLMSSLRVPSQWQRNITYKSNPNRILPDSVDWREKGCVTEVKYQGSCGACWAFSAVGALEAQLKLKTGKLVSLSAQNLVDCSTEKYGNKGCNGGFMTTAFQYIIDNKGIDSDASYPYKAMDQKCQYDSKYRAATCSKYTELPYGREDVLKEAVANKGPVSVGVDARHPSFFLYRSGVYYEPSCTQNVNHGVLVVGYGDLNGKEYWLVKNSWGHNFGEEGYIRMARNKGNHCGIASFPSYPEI

[3] = molecular target: Procathepsin L (Homo sapiens, UniProt P07711); assay: Inhibition of human recombinant cathepsin L
Chain of Procathepsin L (P07711 whole entry): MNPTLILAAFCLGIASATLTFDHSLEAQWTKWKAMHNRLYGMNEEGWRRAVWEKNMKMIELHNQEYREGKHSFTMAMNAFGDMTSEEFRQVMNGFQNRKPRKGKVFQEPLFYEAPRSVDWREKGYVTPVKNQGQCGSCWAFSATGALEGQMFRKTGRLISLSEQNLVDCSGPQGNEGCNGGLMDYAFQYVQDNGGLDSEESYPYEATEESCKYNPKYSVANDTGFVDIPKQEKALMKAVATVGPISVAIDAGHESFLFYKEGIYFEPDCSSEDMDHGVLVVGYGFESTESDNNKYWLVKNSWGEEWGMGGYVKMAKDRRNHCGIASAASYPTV

[4] = Clearance in rat at 4 uM/kg, iv and 10 uM/kg, po; assay type: ADME, organism-based; settings: in vivo
[5] = Half life in rat at 4 uM/kg, iv and 10 uM/kg, po; assay type: ADME, organism-based; settings: in vivo

Compound	pIC50 [1]	pIC50 [2]	pIC50 [3]	clearance [4] [mL/min/kg]	half-life [5] [min]
N#Cc1cncc(NC2CCCCC2)n1	< 6.00	–	–	–	–
N#Cc1ccnc(NC2CCCCC2)n1	6.92	–	–	–	–
CN1CCN(c2ccc(CCNC(=O)c3cnc(C#N)nc3NC3CCCCC3)cc2)CC1	7.33	6.32	6.35	–	–
N#Cc1ncc(C(=O)NCCc2ccc(N3CCCC3)cc2)c(NC2CCCCC2)n1	6.12	5.64	5.29	–	–
CN1CCN(Cc2ccc(CCNC(=O)c3cnc(C#N)nc3NCC(C)(C)C)cc2)CC1	7.96	5.60	6.48	–	–
CN1CCN(c2ccc(CCNC(=O)c3cnc(C#N)nc3NCC(C)(C)C)cc2)CC1	7.60	5.51	5.41	–	–
CN1CCC(Oc2ccc(CCNC(=O)c3cnc(C#N)nc3NCC(C)(C)C)cc2)CC1	7.89	5.00	5.77	–	–
CN1CCN(c2cccc(CCNC(=O)c3cnc(C#N)nc3NCC(C)(C)C)c2)CC1	7.96	5.74	6.09	–	–
CC(C)(C)CNc1nc(C#N)ncc1C(=O)NCCc1ccc(OCCn2ccnc2)cc1	8.52	6.05	6.28	462	48
COc1cccc(CCNC(=O)c2cnc(C#N)nc2NCC(C)(C)C)c1	> 8.52	6.05	5.92	–	–
COc1ccc(CCNC(=O)c2cnc(C#N)nc2NC2CCCCC2)cc1	7.66	6.15	6.77	–	–
COc1ccc(CCNC(=O)c2cnc(C#N)nc2NCC(C)(C)C)cc1	> 8.52	5.80	6.47	–	–
CC(C)(C)CNc1nc(C#N)ncc1C(=O)NCCc1cccc(OCCn2ccnc2)c1	8.52	6.29	6.17	–	–
N#Cc1nccc(NC2CCCCC2)n1	6.77	–	–	–	–
N#Cc1ncc(C(=O)NCCc2ccccc2)c(NC2CCCCC2)n1	8.00	6.89	5.96	–	–
N#Cc1cccc(NC2CCCCC2)c1	< 6.00	–	–	–	–
CC(C)(C)CNc1nc(C#N)ncc1C(=O)NCCc1ccc(N2CCCC2)cc1	6.52	< 5.00	< 5.00	–	–
COc1cccc(CCNC(=O)c2cnc(C#N)nc2NC2CCCCC2)c1	8.05	6.64	6.51	–	–
COc1ccc(CCNC(=O)c2cnc(C#N)nc2NCC(C)(C)C)cc1OCCn1ccnc1	7.51	5.59	6.24	–	–
N#Cc1cccc(NC2CCCCC2)n1	6.00	–	–	–	–
